Source: ChEMBL document CHEMBL3769365, “Discovery of the First Potent and Selective Inhibitors of Human dCTP Pyrophosphatase 1” (J Med Chem, 2016)
Values after ≈ are worked out from the molar mass of the structure shown.

Columns and labels:
dCTP pyrophosphatase 1 = biological target: T1, dCTP pyrophosphatase 1 (Homo sapiens, UniProt Q9H773); assay: Inhibition of human recombinant full length dCTPase expressed in Escherichia coli BL21(DE3)pLysS using dCTP as substrate after 1 hr by HTS-adapted Malachite Green assay
T1 sequence (Q9H773 whole entry): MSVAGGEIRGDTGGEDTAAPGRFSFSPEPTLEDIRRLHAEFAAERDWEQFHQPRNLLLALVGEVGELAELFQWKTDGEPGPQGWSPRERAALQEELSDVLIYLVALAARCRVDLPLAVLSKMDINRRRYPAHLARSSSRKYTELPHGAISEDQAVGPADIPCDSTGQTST

Liver microsome = assay: Half life in human liver microsomes; assay type: ADME
[1] = Half life in mouse liver microsomes; assay type: ADME
[2] = Metabolic stability of plasma (unknown origin) assessed as compound remaining after 4 hrs; assay type: ADME, cell-free; settings: read-out: Stability
[3] = Aqueous solubility of the compound; assay type: physicochemical; settings: buffer
[4] = Fraction unbound in plasma (unknown origin); assay type: ADME, cell-free
Cytochrome P450 3A4 [5] = biological target: T2, Cytochrome P450 3A4 (Homo sapiens, UniProt P08684); assay: Inhibition of CYP3A4 (unknown origin) using testostrone as substrate preincubated for 10 mins followed by NADPH addition by LC/MS/MS analysis; assay type: ADME
T2 sequence (P08684 whole entry): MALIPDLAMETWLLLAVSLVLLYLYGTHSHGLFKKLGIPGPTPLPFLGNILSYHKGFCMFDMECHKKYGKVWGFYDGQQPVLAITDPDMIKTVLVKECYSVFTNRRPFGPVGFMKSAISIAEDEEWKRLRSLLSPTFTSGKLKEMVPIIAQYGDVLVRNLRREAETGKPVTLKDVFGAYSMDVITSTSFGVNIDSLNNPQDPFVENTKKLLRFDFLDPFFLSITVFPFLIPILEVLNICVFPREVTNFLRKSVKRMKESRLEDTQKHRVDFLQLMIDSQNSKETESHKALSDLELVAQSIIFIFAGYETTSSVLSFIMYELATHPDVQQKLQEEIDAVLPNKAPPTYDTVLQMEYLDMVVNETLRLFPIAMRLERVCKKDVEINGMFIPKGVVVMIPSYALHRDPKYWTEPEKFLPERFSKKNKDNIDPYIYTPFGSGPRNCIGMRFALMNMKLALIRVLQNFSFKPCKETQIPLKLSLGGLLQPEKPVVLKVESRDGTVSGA

Cytochrome P450 2D6 = Cytochrome P450 2D6 (Homo sapiens, UniProt P10635); assay: Inhibition of CYP2D6 (unknown origin) using bufuralol as substrate preincubated for 10 mins followed by NADPH addition by LC/MS/MS analysis; assay type: ADME
Sequence of Cytochrome P450 2D6 (P10635 whole entry): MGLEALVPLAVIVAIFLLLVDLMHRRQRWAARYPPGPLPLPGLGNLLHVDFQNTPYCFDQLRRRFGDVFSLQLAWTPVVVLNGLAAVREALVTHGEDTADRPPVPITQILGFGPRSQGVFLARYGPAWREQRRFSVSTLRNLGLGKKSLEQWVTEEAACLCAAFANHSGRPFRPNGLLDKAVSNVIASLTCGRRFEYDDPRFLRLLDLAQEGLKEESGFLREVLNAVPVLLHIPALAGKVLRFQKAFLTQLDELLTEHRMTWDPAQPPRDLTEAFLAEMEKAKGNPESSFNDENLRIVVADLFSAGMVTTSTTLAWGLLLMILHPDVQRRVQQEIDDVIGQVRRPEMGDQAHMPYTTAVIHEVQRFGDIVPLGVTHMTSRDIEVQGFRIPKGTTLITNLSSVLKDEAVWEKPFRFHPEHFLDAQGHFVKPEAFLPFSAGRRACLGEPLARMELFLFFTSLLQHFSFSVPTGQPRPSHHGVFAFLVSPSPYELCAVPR

Cytochrome P450 2C9 = Cytochrome P450 2C9 (Homo sapiens, UniProt P11712); assay: Inhibition of CYP2C9 (unknown origin) using diclofenac as substrate preincubated for 10 mins followed by NADPH addition by LC/MS/MS analysis; assay type: ADME
Sequence of Cytochrome P450 2C9 (P11712 whole entry): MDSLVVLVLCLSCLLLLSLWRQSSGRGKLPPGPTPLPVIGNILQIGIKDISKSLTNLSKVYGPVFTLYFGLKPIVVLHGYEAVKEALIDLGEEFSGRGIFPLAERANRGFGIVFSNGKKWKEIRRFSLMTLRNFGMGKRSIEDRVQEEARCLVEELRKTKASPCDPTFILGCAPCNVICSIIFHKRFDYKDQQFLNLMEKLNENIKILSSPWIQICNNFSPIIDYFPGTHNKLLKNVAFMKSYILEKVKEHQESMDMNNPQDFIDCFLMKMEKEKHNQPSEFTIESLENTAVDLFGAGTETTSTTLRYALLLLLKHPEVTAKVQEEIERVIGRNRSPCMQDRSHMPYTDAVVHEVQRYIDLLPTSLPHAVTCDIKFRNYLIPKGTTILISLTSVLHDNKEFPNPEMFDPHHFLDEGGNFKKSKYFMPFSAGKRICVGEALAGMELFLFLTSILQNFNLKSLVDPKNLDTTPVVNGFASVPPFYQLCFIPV

Cytochrome P450 3A4 [6] = biological target: T2, Cytochrome P450 3A4; assay: Inhibition of CYP3A4 (unknown origin) using midazolam as substrate preincubated for 10 mins followed by NADPH addition by LC/MS/MS analysis; assay type: ADME
[7] = Efflux ratio of apparent permeability of the compound; assay type: ADME
Cytochrome P450 1A2 = biological target: T3, Cytochrome P450 1A2 (Homo sapiens, UniProt P05177); assay: Inhibition of CYP1A2 (unknown origin) using phenacetin as substrate preincubated for 10 mins followed by NADPH addition by LC/MS/MS analysis; assay type: ADME
T3 sequence (P05177 whole entry): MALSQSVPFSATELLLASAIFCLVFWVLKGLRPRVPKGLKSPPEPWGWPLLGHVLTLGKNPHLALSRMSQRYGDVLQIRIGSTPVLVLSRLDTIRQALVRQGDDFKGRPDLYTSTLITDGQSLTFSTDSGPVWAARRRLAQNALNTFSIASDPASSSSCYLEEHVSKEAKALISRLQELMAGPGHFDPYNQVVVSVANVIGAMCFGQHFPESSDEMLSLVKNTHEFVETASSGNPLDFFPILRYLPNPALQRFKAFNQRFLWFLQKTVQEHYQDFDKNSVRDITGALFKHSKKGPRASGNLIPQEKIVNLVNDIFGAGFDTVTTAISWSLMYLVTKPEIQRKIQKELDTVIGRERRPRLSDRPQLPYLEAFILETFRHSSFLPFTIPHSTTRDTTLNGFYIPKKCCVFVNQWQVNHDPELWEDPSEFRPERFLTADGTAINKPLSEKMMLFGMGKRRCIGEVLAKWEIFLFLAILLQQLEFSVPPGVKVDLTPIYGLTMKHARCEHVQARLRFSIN

[8] = Apparent permeability of the compound from apical to basolateral side; assay type: physicochemical
Cytochrome P450 2C19 = Cytochrome P450 2C19 (Homo sapiens, UniProt P33261); assay: Inhibition of CYP2C19 (unknown origin) using mephenytoin as substrate preincubated for 10 mins followed by NADPH addition by LC/MS/MS analysis; assay type: ADME
Sequence of Cytochrome P450 2C19 (P33261 whole entry): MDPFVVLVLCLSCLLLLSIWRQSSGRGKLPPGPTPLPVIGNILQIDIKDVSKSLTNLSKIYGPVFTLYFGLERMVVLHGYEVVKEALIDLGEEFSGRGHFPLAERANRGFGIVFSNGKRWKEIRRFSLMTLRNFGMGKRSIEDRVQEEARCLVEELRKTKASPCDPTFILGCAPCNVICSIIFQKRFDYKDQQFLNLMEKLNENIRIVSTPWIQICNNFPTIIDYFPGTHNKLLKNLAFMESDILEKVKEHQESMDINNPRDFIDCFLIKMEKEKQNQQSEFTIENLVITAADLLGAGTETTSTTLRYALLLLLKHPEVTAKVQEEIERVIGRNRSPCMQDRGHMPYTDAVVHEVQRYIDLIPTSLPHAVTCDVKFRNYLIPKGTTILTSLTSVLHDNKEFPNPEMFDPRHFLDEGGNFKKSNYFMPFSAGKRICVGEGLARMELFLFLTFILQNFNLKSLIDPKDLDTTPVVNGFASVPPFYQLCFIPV

[9] = Mutagenicity in human HL60 cells assessed as caspase 3 cleavage by Western blot analysis; assay type: toxicity, cell-based; settings: hl-60
[10] = Mutagenicity in human HL60 cells assessed as Chk1 phosphorylation at S345 by Western blot analysis; assay type: toxicity, cell-based; settings: hl-60
[11] = Photostability of compound at room temperature after 5 months by LC/MS analysis; assay type: physicochemical; settings: 3652.5 h
[12] = Mutagenicity in human HL60 cells assessed as gammaH2AX foci formation at 2.5 uM after 24 hrs by immunofluorescence staining-based Zeiss LSM-780 confocal microscopy; assay type: toxicity, cell-based; settings: hl-60, 24 h
[13] = Mutagenicity in human HL60 cells assessed as 53BP1 foci formation at 2.5 uM after 24 hrs by immunofluorescence staining-based Zeiss LSM-780 confocal microscopy; assay type: toxicity, cell-based; settings: hl-60, 24 h

Structure (SMILES): COc1ccc(Cn2cnc3ccccc32)cc1
- IC50 (dCTP pyrophosphatase 1): > 100000 nM

Structure (SMILES): Cc1nc2cc(Cl)c(Cl)cc2n1Cc1ccc(B(O)O)cc1
- IC50 (dCTP pyrophosphatase 1): 248 nM

Structure (SMILES): COc1ccc(Cn2c(C)nc3c([N+](=O)[O-])cccc32)cc1
- IC50 (dCTP pyrophosphatase 1): 1450 nM

Structure (SMILES): Cc1nc2c([N+](=O)[O-])c(Cl)c(Cl)cc2n1Cc1ccc(C(=O)O)cc1
- IC50 (dCTP pyrophosphatase 1): 73 nM

Structure (SMILES): Cc1nc2c([N+](=O)[O-])c(Cl)c(Cl)cc2n1Cc1ccccc1
- IC50 (dCTP pyrophosphatase 1): 49 nM

Structure (SMILES): CC(=O)Oc1ccc(Cn2c(C)nc3c([N+](=O)[O-])c(Cl)c(Cl)cc32)cc1
- IC50 (dCTP pyrophosphatase 1): 34 nM

Structure (SMILES): COc1ccc(Cn2c(C)nc3cc(C)c(C)cc32)cc1
- IC50 (dCTP pyrophosphatase 1): 22000 nM

Structure (SMILES): O=[N+]([O-])c1c(Cl)c(Cl)cc2c1nc(C1CC1)n2Cc1ccc(B(O)O)cc1
- t1/2 (Liver microsome): 268 min
- t1/2 [1]: 13 min

Structure (SMILES): Cc1nc2c([N+](=O)[O-])c(Cl)c(Cl)cc2n1Cc1ccccc1B(O)O
- IC50 (dCTP pyrophosphatase 1): 82 nM

Structure (SMILES): Cc1nc2c([N+](=O)[O-])c(F)c(F)cc2n1Cc1ccc(B(O)O)cc1
- IC50 (dCTP pyrophosphatase 1): 529 nM

Structure (SMILES): Cc1nc2c([N+](=O)[O-])c(Cl)c(Cl)cc2n1Cc1ccc(C=O)cc1
- IC50 (dCTP pyrophosphatase 1): 133 nM

Structure (SMILES): Cc1n[nH]c(C)c1CCn1c(C)nc2c([N+](=O)[O-])c(Cl)c(Cl)cc21
- IC50 (dCTP pyrophosphatase 1): 190 nM
- t1/2 (Liver microsome): 6 min
- t1/2 [1]: 7 min

Structure (SMILES): COc1ccc(Cn2c(C)nc3cc(Cl)c(Cl)cc32)cc1
- IC50 (dCTP pyrophosphatase 1): 12000 nM

Structure (SMILES): Cc1nc2c([N+](=O)[O-])c(Cl)c(Cl)cc2n1C(=O)c1ccccc1
- IC50 (dCTP pyrophosphatase 1): 96 nM

Structure (SMILES): Cc1nc2c([N+](=O)[O-])c(Cl)c(Cl)cc2n1Cc1cccc(B(O)O)c1
- IC50 (dCTP pyrophosphatase 1): 46 nM

Structure (SMILES): COc1ccc(Cn2cnc3cc(C)c(C)cc32)cc1
- IC50 (dCTP pyrophosphatase 1): > 100000 nM

Structure (SMILES): Cc1nc2c([N+](=O)[O-])c(Cl)c(Cl)cc2n1Cc1ccc(-n2cccc2)cc1
- IC50 (dCTP pyrophosphatase 1): 331 nM

Structure (SMILES): Cc1nc2c([N+](=O)[O-])c(Cl)c(Cl)cc2n1Cc1ccc(-n2cccn2)cc1
- IC50 (dCTP pyrophosphatase 1): 75 nM
- t1/2 (Liver microsome): 38 min
- t1/2 [1]: 22 min

Structure (SMILES): Cc1nc2c([N+](=O)[O-])c(Cl)c(Cl)cc2n1Cc1ccc(C#N)cc1
- IC50 (dCTP pyrophosphatase 1): 165 nM

Structure (SMILES): COc1ccc(Cn2c(C)nc3ccccc32)cc1
- IC50 (dCTP pyrophosphatase 1): > 100000 nM

Structure (SMILES): Cc1nc2c([N+](=O)[O-])c(Cl)c(Cl)cc2n1Cc1ccc(Cl)nc1
- IC50 (dCTP pyrophosphatase 1): 185 nM

Structure (SMILES): COC(=O)c1ccc(Cn2c(C)nc3c([N+](=O)[O-])c(Cl)c(Cl)cc32)cc1
- IC50 (dCTP pyrophosphatase 1): 95 nM

Structure (SMILES): Cc1nc2c([N+](=O)[O-])c(Cl)c(Cl)cc2n1-c1ccccc1
- IC50 (dCTP pyrophosphatase 1): 85 nM

Structure (SMILES): Cc1nc(Cn2c(C)nc3c([N+](=O)[O-])c(Cl)c(Cl)cc32)cs1
- IC50 (dCTP pyrophosphatase 1): 240 nM

Structure (SMILES): Cc1nc2c([N+](=O)[O-])c(Cl)c(Cl)cc2n1Cc1ccc(O)cc1
- IC50 (dCTP pyrophosphatase 1): 21 nM
- remaining at 4 h [2]: 96%
- solubility [3]: 11 µM (≈ 3.87 µg/mL)
- Fu [4]: 0.7%

Structure (SMILES): Cc1nc2c([N+](=O)[O-])c(Cl)c(Cl)cc2n1Cc1ccc(B2OC(=O)CN(C)CC(=O)O2)cc1
- IC50 (Cytochrome P450 3A4 [5]): 21900 nM
- IC50 (dCTP pyrophosphatase 1): 47 nM
- remaining at 4 h [2]: 86%
- IC50 (Cytochrome P450 2D6): 16800 nM
- IC50 (Cytochrome P450 2C9): 1720 nM
- IC50 (Cytochrome P450 3A4 [6]): 28100 nM
- Ratio [7]: 1.51
- IC50 (Cytochrome P450 1A2): 377000 nM
- solubility [3]: > 100 µM
- t1/2 (Liver microsome): 11 min
- Papp [8]: 8.66 ×10⁻⁶ cm/s
- t1/2 [1]: 109 min
- IC50 (Cytochrome P450 2C19): 2930 nM
- Fu [4]: 0.8%

Structure (SMILES): Cc1nc2c([N+](=O)[O-])c(Cl)c(Cl)cc2n1CCc1ccc(B(O)O)cc1
- IC50 (dCTP pyrophosphatase 1): 205 nM

Structure (SMILES): COc1ccc(Cn2c(C)nc3c([N+](=O)[O-])c(C)c(C)cc32)cc1
- IC50 (dCTP pyrophosphatase 1): 57 nM

Structure (SMILES): Cc1cc2c(nc(C)n2C(C)c2ccccc2)c([N+](=O)[O-])c1C (centres undefined)
- IC50 (dCTP pyrophosphatase 1): 250 nM

Structure (SMILES): COc1ccc(Cn2c(C)nc3c([N+](=O)[O-])c(Cl)c(Cl)cc32)cc1
- t1/2 (Liver microsome): 30 min
- t1/2 [1]: 8 min

Structure (SMILES): Cc1nc2c([N+](=O)[O-])c(Cl)c(Cl)cc2n1Cc1ccc(B(O)O)cc1
- Activity [9]: Non-toxic
- IC50 (dCTP pyrophosphatase 1): 46 nM
- remaining at 4 h [2]: 11%
- Activity [10]: Non-toxic
- Stability [11]: Stable
- solubility [3]: 52 µM (≈ 19.8 µg/mL)
- Activity [12]: Non-toxic
- t1/2 (Liver microsome): 72 min
- Activity [13]: Non-toxic
- t1/2 [1]: 197 min
- Fu [4]: 0.1%

Structure (SMILES): Cc1ccc(Cn2c(C)nc3c([N+](=O)[O-])c(Cl)c(Cl)cc32)cc1
- IC50 (dCTP pyrophosphatase 1): 19 nM
